These results are taken from publication PMC8780549, “Discovery of Small Molecules as Membrane-Bound Catechol-O-methyltransferase Inhibitors with Interest in Parkinson’s Disease: Pharmacophore Modeling, Molecular Docking and In Vitro Experimental Validation Studies” (Pharmaceuticals, 2021).

Structures are written as SMILES.

Assay [1] deals with dopaminergic neuronal cells (N27). As to the kind of experiment: MTT cytotoxicity assay in N27 cells. It counts as cell-based. Conditions: Rattus norvegicus, 48 h. (In general: Formazan colour is commonly taken as a measure of viable cells.)
Assay [2] concerns normal human dermal fibroblasts (NHDF). As to the kind of experiment: MTT cytotoxicity assay in NHDF cells. It counts as cell-based. To be noted: 48 h.
In a further assay the target is T1, human recombinant MBCOMT (Homo sapiens, UniProt P21964).
T1 sequence (P21964 1-271): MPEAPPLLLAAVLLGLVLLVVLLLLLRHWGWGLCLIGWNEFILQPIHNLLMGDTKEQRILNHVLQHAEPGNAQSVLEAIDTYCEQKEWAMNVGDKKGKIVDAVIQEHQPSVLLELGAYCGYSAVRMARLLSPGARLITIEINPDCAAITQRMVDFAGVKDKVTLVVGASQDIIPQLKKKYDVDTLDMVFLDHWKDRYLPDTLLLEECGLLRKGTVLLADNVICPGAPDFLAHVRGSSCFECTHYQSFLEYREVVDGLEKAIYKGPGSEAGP
As to the kind of experiment: In-vitro MBCOMT enzymatic inhibition assay (metanephrine from epinephrine, HPLC).

A further assay has as its system Liver MBCOMT. Conditions: cited from earlier work.
Setting [3] is: IC50 (nM), Recombinant MBCOMT, this work, means with 95% confidence (n = 2 to 3).
Setting [4] is: IC50, Recombinant MBCOMT, bound stated.

As for `O=c1[nH]cc(F)c(=O)[nH]1` [Compound 5-FU, 5-fluorouracil, reference compound], the IC50 in assay [1] came out at 4.28 µM; in assay [2] (Homo sapiens), 5.16 µM.

Regarding `CC(C)Cn1c(-c2cc(-c3ccc(O)c(O)c3O)nc3c2c(O)nn3C(C)C)nc2ccccc21` [ZINC95473053], at human recombinant MBCOMT, the inhibition at 10 µM is 41% and the inhibition at 100 µM was 46%.

In the case of `C[C@@]1(C(=O)O)CC[C@]2(C)CC[C@]3(C)C4=CC(=O)c5c(cc(O)c(O)c5C=O)[C@@]4(C)CC[C@@]3(C)[C@@H]2C1` [ZINC605706834], on human recombinant MBCOMT, the inhibition at 10 µM came out at 39% and the inhibition at 100 µM amounted to 34%.

Turning to `C/C(=N\Cc1ccccc1)c1ccc(O)c(O)c1O` [ZINC98288], the IC50 is 69.8 µM in assay [1], > 100 µM in assay [2] (Homo sapiens), 944 nM on human recombinant MBCOMT (setting [3]) and < 1000 nM at human recombinant MBCOMT (setting [4]). Besides, the inhibition at 10 µM on human recombinant MBCOMT is 100%. Also, the inhibition at 100 µM on human recombinant MBCOMT was determined as 100%.

`Cc1ccc(/N=C/c2c(O)c(O)cc3ccccc23)cc1` [ZINC825166420]: the IC50 in assay [1] turned out to be 17 µM; in assay [2] (Homo sapiens), 12.1 µM; at human recombinant MBCOMT (setting [3]), 1540 nM. Moreover, the inhibition at 10 µM on human recombinant MBCOMT was 72%. In addition, the inhibition at 100 µM at human recombinant MBCOMT came to 100%.

In the case of `COC(=O)c1cc(O)c(O)c([N+](=O)[O-])c1` [ZINC38175059], at human recombinant MBCOMT, the inhibition at 10 µM was 100% and the inhibition at 100 µM worked out at 100%.

Regarding `Cc1[nH]nc(-c2ccc(O)c(O)c2O)c1Oc1ccccc1` [ZINC302226], the IC50 in assay [1] is 52.5 µM; in assay [2] (Homo sapiens), > 100 µM; at human recombinant MBCOMT (setting [3]), 1080 nM. The inhibition at 10 µM on human recombinant MBCOMT came out at 56%. Besides, the inhibition at 100 µM at human recombinant MBCOMT worked out at 100%.

With `Cc1cc(=O)oc2c(O)c(O)c(C(=O)O)cc12` [ZINC68675288], at human recombinant MBCOMT, the inhibition at 10 µM amounted to 40% and the inhibition at 100 µM was 43%.

As to `O=Cc1cc([N+](=O)[O-])c(O)c(O)c1Br` [ZINC78496496], the IC50 was > 100 µM in assay [1], 92.9 µM in assay [2] (Homo sapiens), 470 nM on human recombinant MBCOMT (setting [3]) and < 1000 nM at human recombinant MBCOMT (setting [4]). Also, the inhibition at 10 µM at human recombinant MBCOMT was determined as 81%. Also, the inhibition at 100 µM on human recombinant MBCOMT came to 100%.

For `Cc1ccc(C(=O)c2cc(O)c(O)c([N+](=O)[O-])c2)cc1` [Tolcapone], the IC50 with Liver MBCOMT is 0.123 µM.

Turning to `N#Cc1cc(O)c(O)c([N+](=O)[O-])c1` [ZINC27985035], the IC50 in assay [1] worked out at 61.3 µM; in assay [2], 40.3 µM; in assay [2] (Homo sapiens, NHDF) it was 40.3 µM.

In the case of `COc1ccc(-c2nc(-c3cccc(O)c3O)[nH]c2-c2oc(C)cc(=O)c2O)cc1` [ZINC1547205762], on human recombinant MBCOMT, the inhibition at 10 µM was 14% and the inhibition at 100 µM stood at 27%.

As usually defined, the IC50 is the concentration that inhibits the measured activity by half. The inhibition is the percentage by which the read-out fell short of the control.
